Assay results published in patent publication US7892574B2, “Topical administration of oxazolidinones for transdermal delivery” (Pharmacia & Upjohn Company, LLC, priority 1998, dated 2011).

Assays:
Type in all cases: in vivo
acne = assay: Human who has acne treated with an Oxazolidinone ointment; conditions: person, ointment containing 30 mg/ml, topical, twice daily
Protocol: A Human Who has Acne is Treated with an Oxazolidinone Ointment

otitis media = assay: Human who has an ear infection treated with Oxazolidinone solution; conditions: child, ten drops of solution containing 10 mg/ml into the ear twice daily for ten days; before 10 days
Protocol: A Human Who has an Ear Infection is Treated with Oxazolidinone Solution
Ten drops of a solution containing 10 mg/ml of (S)-N-[[3-[3-fluoro-4-(4-morpholinyl)phenyl]-2-oxo-5-oxazolidinyl]methyl]acetamide is dropped into the ear twice daily for ten days with an eye dropper and is immediately followed by closing the outer ear canal with cotton.

wound infection = assay: Human with wound infection treated with Oxazolidinone gel; conditions: person, punctured finger, gel containing 1%, twice daily for 10 days
Protocol: Human with Wound Infection is Treated with Oxazolidinone Gel
A 65 kg person who has a severely swollen and painful finger with a history of having punctured the finger on a rose thorn two days previously is treated by administering a gel containing 1% N-((5S)-3-(3-fluoro-4-(4-(2-fluoroethyl)-3-oxopiperazin-1-yl)phenyl)-2-oxooxazolidin-5-ylmethyl)acetamide twice daily for 10 days. The site of inflammation is kept lightly covered with a sterile bandage following antibiotic therapy.

With `CC(=O)NC[C@H]1CN(c2ccc(N3CCN(C(=O)CO)CC3)c(F)c2)C(=O)O1` [Example 1, (S)-N-[[3-[3-Fluoro-4-[4-(hydroxyacetyl)-1-piperazinyl]-phenyl]-2-oxo-5-oxazolidinyl]methyl]acetamide] the “reddened and swollen pustules after administration” value (acne) was “greatly reduced”.
For `CC(=O)NC[C@H]1CN(c2ccc(N3CCOCC3)c(F)c2)C(=O)O1` [Example 2, (S)-N-[[3-[3-Fluoro-4-(4-morpholinyl)phenyl]-2-oxo-5-oxazolidinyl]methyl]acetamide], the fever (otitis media) was “the fever is down” and the pain (otitis media) was “the pain is gone”.
`CC(=O)NC[C@H]1CN(c2ccc(N3CCN(CCF)C(=O)C3)c(F)c2)C(=O)O1` [Example 4, N-((5S)-3-(3-Fluoro-4-(4-(2-fluoroethyl)-3-oxopiperazin-1-yl)phenyl)-2-oxooxazolidin-5-ylmethyl)acetamide] was tested, and the wound healing (wound infection) was “The wound heals”.
